In patent US20080193913A1, “Diluent, methods of manufacture and use” (Millipore Corporation, priority 2002, published 2008):

Assay: Non-specific drug binding (NSB) to 96-well plates, drug in phosphate buffer
Assay type: physicochemical
Details: time course study on PP and PTFE plates using LC-MS (data not shown)
Procedure: The drug NSB (10 nM drug in phosphate buffer) to other 96-well plates made from different plastics was also tested.

Compound	drug NSB, dependence on plate material
CC(=O)O[C@H]1C(=O)[C@@]2(C)[C@H]([C@H](OC(=O)c3ccccc3)[C@]3(O)C[C@H](OC(=O)[C@H](O)[C@@H](NC(=O)c4ccccc4)c4ccccc4)C(C)=C1C3(C)C)[C@]1(OC(C)=O)CO[C@@H]1C[C@@H]2O [taxol]	independent of plate material
C[C@]12CC[C@H]3[C@@H](CCC4=CC(=O)CC[C@@]43C)[C@@H]1CC[C@@H]2O [testosterone]	independent of plate material
